Source: US7048907B2, “Synthesis, compositions and methods for the measurement of the concentration of stable-isotope labeled compounds in life forms and life form excretory products” (BioPhysics Assay Laboratory, Inc., priority 2001, dated 2006)

Tests used:
[1] = Stability of chelates in rat serum (CM-Sephadex assay, serum binding); details: 24 hours in rat serum at room temperature
[2] = demonstrated by properties of the marketed pharmaceutical product; cited from earlier work
[3] = Blood depletion of Gd-DTPA in the rat after three sequential administrations (theoretical example); assay type: in vivo
Description: In this theoretical example, three 0.5 ml samples of Gd-DTPA (0.05 mg/kg) each dissolved in saline (pH 7) are injected sequentially at 0, 20, and 40 minutes into the tail vein of a rat. Samples of blood are obtained at 10, 30 and 60 minutes following each injection and analyzed for Gd by T1 relaxation. […] This example highlights one advantage of using neutron activation over T1 relaxivity to measure pharmacological rates of elimination when using sequential injections (compare Examples 32 and 33).

[4] = Effect of dilution on the stability of Sm-DTPA; assay type: physicochemical
Description: Sm-DTPA (1 mM) was prepared as described in Example 9. The solution was further diluted with 0.01 M Tris buffer pH 7.51:10, 1:100, 1:1000, and 1:10000 and allowed to stand at room temperature for 24 hours. The four samples were then assayed for stability of the Sm-DTPA complex as described in Example 17.

[5] = Fraction 1: 0.2 ml sample then 2 ml 0.01M Tris pH 7.5 (eluate)
[6] = Fraction 2: 3 ml 0.01M Tris pH 7.5
[7] = Fraction 3: column and contents (retained)
[8] = Sm-DTPA 0.1 μM, 24 hours room temperature, Fraction 1: 3 ml Tris before sample
[9] = Sm-DTPA 0.1 μM, 24 hours room temperature, Fraction 2: sample then 3 ml Tris (eluate)
[10] = Sm-DTPA 0.1 μM, 24 hours room temperature, Fraction 3: further 3 ml Tris
[11] = Sm-DTPA 0.1 μM, 24 hours room temperature, Fraction 4: column and contents
[12] = Sm-DTPA 1 μM, 24 hours room temperature, Fraction 1: 3 ml Tris before sample
[13] = Sm-DTPA 1 μM, 24 hours room temperature, Fraction 2: sample then 3 ml Tris (eluate)
[14] = Sm-DTPA 1 μM, 24 hours room temperature, Fraction 3: further 3 ml Tris
[15] = Sm-DTPA 1 μM, 24 hours room temperature, Fraction 4: column and contents
[16] = Sm-DTPA 10 μM, 24 hours room temperature, Fraction 1: 3 ml Tris before sample
[17] = Sm-DTPA 10 μM, 24 hours room temperature, Fraction 2: sample then 3 ml Tris (eluate)
[18] = Sm-DTPA 10 μM, 24 hours room temperature, Fraction 3: further 3 ml Tris
[19] = Sm-DTPA 10 μM, 24 hours room temperature, Fraction 4: column and contents
[20] = Sm-DTPA 100 uM, 24 hours room temperature, Fraction 1: 3 ml Tris before sample
[21] = Sm-DTPA 100 uM, 24 hours room temperature, Fraction 2: sample then 3 ml Tris (eluate)
[22] = Sm-DTPA 100 uM, 24 hours room temperature, Fraction 3: further 3 ml Tris
[23] = Sm-DTPA 100 uM, 24 hours room temperature, Fraction 4: column and contents
[24] = Sm-DTPA 1 mM, Fraction 1: 3 ml Tris before sample
[25] = Sm-DTPA 1 mM, Fraction 2: sample then 3 ml Tris (eluate)
[26] = Sm-DTPA 1 mM, Fraction 3: further 3 ml Tris
[27] = Sm-DTPA 1 mM, Fraction 4: column and contents

Compound: O=C([O-])CN(CCN(CC(=O)[O-])CC(=O)[O-])CCN(CC(=O)[O-])CC(=O)[O-].[Eu+3] [Eu-DTPA]
- % of total [1, 5]: 91 % of total
- dpm [1, 5]: 4763 dpm
- % of total [1, 6]: 9 % of total
- dpm [1, 6]: 499 dpm
- % of total [1, 7]: 0 % of total
- dpm [1, 7]: 0 dpm

Compound: O=C([O-])CN(CCN(CC(=O)[O-])CC(=O)O)CCN(CC(=O)[O-])CC(=O)O.[Gd+3] [Gd-DTPA, Gd-diethylenetriaminepentaacetic acid]
- stability to autoclaving [2]: stability of gadolinium-DTPA to autoclaving is demonstrated
- Percent of initial injection, First injection ([3]; 0 min after 1st injection, Gd-DTPA 0.05 mg/kg i.v. at 0, 20, 40 minutes, T1 relaxation): 100% of initial injection
- Percent of initial injection, Cumulative total ([3]; 0 min after 1st injection, calculated based upon the first injection): 100% of initial injection
- Percent of initial injection, Cumulative total ([3]; 10 min after 1st injection): 81% of initial injection
- Percent of initial injection, First injection ([3]; 10 min after 1st injection): 81% of initial injection
- Percent of initial injection, Second injection ([3]; 20 min after 1st (0 min after 2nd) injection): 100% of initial injection
- Percent of initial injection, Cumulative total ([3]; 20 min after 1st injection): 173% of initial injection
- Percent of initial injection, First injection ([3]; 20 min after 1st injection): 73% of initial injection
- Percent of initial injection, Second injection ([3]; 30 min after 1st (10 min after 2nd) injection): 81% of initial injection
- Percent of initial injection, Cumulative total ([3]; 30 min after 1st injection): 140% of initial injection
- Percent of initial injection, First injection ([3]; 30 min after 1st injection): 59% of initial injection
- Percent of initial injection, Third injection ([3]; 40 min after 1st (0 min after 3rd) injection): 100% of initial injection
- Percent of initial injection, Second injection ([3]; 40 min after 1st (20 min after 2nd) injection): 73% of initial injection
- Percent of initial injection, Cumulative total ([3]; 40 min after 1st injection): 220% of initial injection
- Percent of initial injection, First injection ([3]; 40 min after 1st injection): 47% of initial injection
- Percent of initial injection, Third injection ([3]; 50 min after 1st (10 min after 3rd) injection): 81% of initial injection
- Percent of initial injection, Second injection ([3]; 50 min after 1st (30 min after 2nd) injection): 59% of initial injection
- Percent of initial injection, Cumulative total ([3]; 50 min after 1st injection): 175% of initial injection
- Percent of initial injection, First injection ([3]; 50 min after 1st injection): 35% of initial injection
- Percent of initial injection, Third injection ([3]; 60 min after 1st (20 min after 3rd) injection): 73% of initial injection
- Percent of initial injection, Second injection ([3]; 60 min after 1st (40 min after 2nd) injection): 47% of initial injection
- Percent of initial injection, Cumulative total ([3]; 60 min after 1st injection): 149% of initial injection
- Percent of initial injection, First injection ([3]; 60 min after 1st injection): 29% of initial injection
- Percent of initial injection, Third injection ([3]; 70 min after 1st (30 min after 3rd) injection): 59% of initial injection
- Percent of initial injection, Second injection ([3]; 70 min after 1st (50 min after 2nd) injection): 35% of initial injection
- Percent of initial injection, Cumulative total ([3]; 70 min after 1st injection): 120% of initial injection
- Percent of initial injection, First injection ([3]; 70 min after 1st injection): 26% of initial injection
- Percent of initial injection, Third injection ([3]; 80 min after 1st (40 min after 3rd) injection): 47% of initial injection
- Percent of initial injection, Second injection ([3]; 80 min after 1st (60 min after 2nd) injection): 26% of initial injection
- Percent of initial injection, Cumulative total ([3]; 80 min after 1st injection): 95% of initial injection
- Percent of initial injection, First injection ([3]; 80 min after 1st injection): 22% of initial injection
- Percent of initial injection, Third injection ([3]; 100 min after 1st (60 min after 3rd) injection): 35% of initial injection
- Percent of initial injection, Second injection ([3]; 100 min after 1st (80 min after 2nd) injection): 22% of initial injection
- Percent of initial injection, Cumulative total ([3]; 100 min after 1st injection): 75% of initial injection
- Percent of initial injection, First injection ([3]; 100 min after 1st injection): 18% of initial injection

Compound: O=C([O-])CN(CCN(CC(=O)[O-])CC(=O)[O-])CCN(CC(=O)[O-])CC(=O)[O-].[Sm+3] [Sm-DTPA]
- % of total [4, 8]: 0 % of total
- Dpm [4, 8]: 0 dpm
- % of total [4, 9]: 99 % of total
- Dpm [4, 9]: 192 dpm
- % of total [4, 10]: 1 % of total
- Dpm [4, 10]: 1 dpm
- % of total [4, 11]: 0 % of total
- Dpm [4, 11]: 0 dpm
- % of total [4, 12]: 0 % of total
- Dpm [4, 12]: 0 dpm
- % of total [4, 13]: 96 % of total
- Dpm [4, 13]: 1386 dpm
- % of total [4, 14]: 2 % of total
- Dpm [4, 14]: 29 dpm
- % of total [4, 15]: 2 % of total
- Dpm [4, 15]: 21 dpm
- % of total [4, 16]: 0 % of total
- Dpm [4, 16]: 0 dpm
- % of total [4, 17]: 100 % of total
- Dpm [4, 17]: 15685 dpm
- % of total [4, 18]: <1 % of total
- Dpm [4, 18]: 19 dpm
- % of total [4, 19]: 0 % of total
- Dpm [4, 19]: 0 dpm
- % of total [4, 20]: 0 % of total
- Dpm [4, 20]: 0 dpm
- % of total [4, 21]: 98 % of total
- Dpm [4, 21]: 162208 dpm
- % of total [4, 22]: <1 % of total
- Dpm [4, 22]: 1308 dpm
- % of total [4, 23]: 2 % of total
- Dpm [4, 23]: 2121 dpm
- % of total [4, 24]: 0 % of total
- Dpm [4, 24]: 0 dpm
- % of total [4, 25]: 97 % of total
- Dpm [4, 25]: 1482087 dpm
- % of total [4, 26]: 1 % of total
- Dpm [4, 26]: 19089 dpm
- % of total [4, 27]: 2 % of total
- Dpm [4, 27]: 24257 dpm
- stability of the complex on dilution ([4]; concentration limits of 1 mM to 0.1 μM, 24 hours room temperature): stable complex
- % eluting from CM Sephadex columns ([4]; concentration range of 0.1 μM to 1 mM): 100%

Compound: O=C([O-])CN(CCN(CC(=O)[O-])CC(=O)[O-])CCN(CC(=O)[O-])CC(=O)[O-].[La+3] [La-DTPA]
- % of total [1, 5]: 93 % of total
- dpm [1, 5]: 82912 dpm
- % of total [1, 6]: 7 % of total
- dpm [1, 6]: 6167 dpm
- % of total [1, 7]: 0 % of total
- dpm [1, 7]: 0 dpm
